{"source": "patent US10206890B2", "about": "“Pharmaceutical combination” (priority 2008, dated 2019)", "key": {"[1]": {"test_system": "male Sprague-Dawley rats with ligated left L5/L6 spinal nerves (tactile allodynia)", "experiment": "In vivo experiments according to Chung (spinal nerve ligation, tactile allodynia, electronic von Frey; isobolographic analysis)", "design": "species or system rat", "conditions": "for contra-lateral paw withdrawal threshold, anti-nociceptive effect: 10 mg/kg i.v.; for ED50 (95% confidence interval), anti-allodynic efficacy, single substance / efficacy, increase in the withdrawal threshold of the ipsi-lateral hind paw: i.v.; for ED50 (95% confidence interval), anti-allodynic efficacy, single substance: calculated from peak effect vs. control values at 30 min after administration; for efficacy, increase in the withdrawal threshold of the ipsi-lateral hind paw: maximal efficacy over the doses tested (combination: highest dose 1 mg/kg+2.5 mg/kg), peak effect 30 min after administration", "excerpt": "The weight ratios of components (a) and (b) that will lead to a supra-additive effect/synergistic effect of the inventive compositions may be determined in the test of Kim & Chung as described in Kim S H, Chung J M. An experimental model for peripheral mononeuropathy produced by segmental spinal nerve ligation in the rat. Pain 1992; 50: 355-63. Said reference is hereby incorporated by reference and forms part of the disclosure.\nLigatures were applied to the left L5/L6 spinal nerves of male Sprague-Dawley rats (140-160 g body weight, Janvier, Genest St. Isle, France). […] Three to four weeks after the operation the tactile allodynia threshold baseline (withdrawal threshold) was measured on the ipsilateral and contralateral hind paw by an electronic von Frey anaesthesiometer (Somedic, Schweden). After test and measurement of the baseline, (1R,2R)-3-(3-dimethylamino-1-ethyl-2-methyl-propyl)-phenol hydrochloride (hereinafter referred to as tapentadol hydrochloride or tapentadol-HCl), (S)-pregabalin as well as the inventive combination of tapentadol-HCl and (S)-pregabalin were each dissolved in 0.9% NaCl solution and injected by the intravenous (i.v.) route (application volume 5 ml/kg). Animals were randomly assigned to groups of 10 for each test dose and vehicle (0.9% NaCl solution) and tactile withdrawal thresholds were tested 0.5 h before administration and on several time points (0.5, 1 and 3 hours) after intravenous administration. Ipsi- and contralateral hindpaws were tested. The median of the withdrawal threshold for each animal at a given time is calculated from five individual stimulations with the electronic von Frey filament. Withdrawal thresholds of the injured paws are expressed as % MPE (Maximum possible effect) comparing predrug threshold of Chung-Animals (=0% MPE) and control threshold of sham-animals (100% MPE). A cut-off is set at 100% MPE. The effect of each compound and vehicle is calculated for each testing time point as interindividual % MPE value.\nData (anti-allodynic efficacy (% MPE), ipsi-lateral, paw withdrawal threshold (g), ipsi- and conralateral) were analysed by means of a two-factor analysis of variance (ANOVA) with repeated measures. In case of a significant treatment effect, post hoc analysis with Bonferroni adjustment was performed. Results were considered statistically significant if P<0.05."}, "[2]": {"test_system": "rats with tightly ligated L5, L6 spinal nerves (tactile allodynia)", "experiment": "b) In vivo experiments according to Chung (anti-allodynic testing, single dose combinations vs sum of single effects)", "design": "species or system rat", "conditions": "30 min, ± SEM", "excerpt": "The left L5 and L6 spinal nerves were exposed by removing a small piece of the paravertebral muscle and a part of the left spinous process of the L5 lumbar vertebra. The L5 and L6 spinal nerves were then carefully isolated and tightly ligated with silk (NC-silk black, USP 5/0, metric 1, Braun Melsungen AG, Melsungen, FRG). After checking hemostasis, the muscle and the adjacent fascia were closed with sutures and the skin was closed with sutures.\nAfter operation, animals were allowed to recover for one week. Animals develop tactile allodynia which is stable for at least five weeks. For the assessment of tactile allodynia the rats were placed on a metal mesh covered with a plastic dome and were allowed to habituate until the exploratory behaviour diminished. Threshold for tactile allodynia was measured with an electronic von Frey anesthesiometer (Somedic, Sweden). Animals randomly assigned to groups of 10 for each test dose and vehicle, were tested 0.5 h before administration and on several time points after administration. The median of the withdrawal threshold for each animal at a given time is calculated from five individual stimulations with the electronic von Frey filament. Withdrawal thresholds of the injured paws are expressed as % maximal possible effect (% MPE) comparing predrug threshold of Chung-animals (=0% MPE) and control threshold of sham-animals (=100% MPE). A cut-off is set at 100% MPE. The effect of each compound and vehicle is calculated for each testing time point (e.g. 0.5, 1, 3 h post administration) as interindividual % MPE value (±SEM). Anti-allodynic efficacy is defined as increase of ipsi-lateral withdrawal threshold without effect on contra-lateral withdrawal threshold. Ten animals have been used in each group.\nEffects of drug combinations are compared to the theoretical sum of the effects of each drug tested alone."}, "[3]": {"test_system": "inflamed rat hind paw (carrageenan)", "experiment": "c) In vivo experiments according to Randall-Selitto (carrageenan inflammatory pain, mechanical nociceptive threshold; isobolographic analysis", "conditions": "peak effect 15 min p. appl., interval in brackets; for ED50: Rattus norvegicus, 0.25 h", "procedure": "The weight ratios of the components (a) and (b) that will lead to a supra-additive effect (synergistic effect) of the inventive pharmaceutical composition may be determined via the test of Randall and Selitto as described in Arch. Int. Pharmacodyn., 1957, 111, 409 to 419, which is a model for inflammatory pain. The respective part of the literature is hereby incorporated by reference and forms part of the present disclosure.\nAcute inflammation is induced by an intraplantar injection of 0.1 ml of a carrageenan solution (0.5% in distilled water) into one hind paw. The mechanical nociceptive threshold is measured 4 hours after carrageenan injection using an Algesiometer (Ugo Basile, Italy). The device generates a mechanical force with a linear increase over time. The force is applied to the dorsal surface of the inflamed rat hind paw via a cone-shaped stylus with a rounded tip (2 mm tip diameter). The nociceptive threshold is defined as the force (in grams) at which the rat vocalises (cut-off force 250 g). The mechanical nociceptive threshold is measured at different timepoints after the drug or vehicle administration. The antinociceptive and antihyperalgesic activity of the tested substance is expressed as percentages of the maximal possible effect (% MPE). The group size is n=10.\nThe interactions studies presented herein were performed using equieffective doses of the two components, calculated from the ratio of the respective ED50 values of the components if administered alone.\nThe route of administration was intravenous (i.v.) for Tapentadol hydrochloride (A) and intraperitoneal (i.p.) for the anticonvulsants (antiepileptics) Lamotrigine, Lacosamide, Levetiracetam and Retigabine dihydrochloride. […] According to their respective timepoint of peak effect, A was applied 15 min and the anticonvulsant component 15 min before timepoint of measurement of the interaction-experiments (i. e. both components were applied simultaneously). Thus, the time point of ED50 calculation of the combination corresponds to the timepoint of the peak effect of the respective compound."}, "[4]": {"conditions": "ip, read-out: ED50 of the anticonvulsant applied alone, i.p."}, "[5]": {"conditions": "ip, i.p., read-out: ED50 of the anticonvulsant applied alone"}}, "note": "Several values for one entry are separate records, joined by “and”; a condition that tells them apart may be missing. Equal entries are not always repeated. Structures can show the parent of a compound that is named as a salt. Where two headings read alike, the source gives them in different places.", "data": [{"smiles": "CC(C)C[C@H](CN)CC(=O)O", "note": "[(S)-pregabalin]", "values": [{"measurement": "contra-lateral paw withdrawal threshold, anti-nociceptive effect", "setting": "[1]", "value": "significant anti-nociceptive effects"}, {"measurement": "ED50 (95% confidence interval), anti-allodynic efficacy, single substance", "setting": "[1]", "value": "4.20 (3.37-5.43) mg/kg i.v."}, {"measurement": "efficacy, increase in the withdrawal threshold of the ipsi-lateral hind paw", "setting": "[1]", "value": 67, "unit": "% MPE"}]}, {"smiles": "NCC1(CC(=O)O)CCCCC1", "note": "[Gabapentin]", "values": [{"measurement": "Effect % MPE (time after administration of Tapentadol hydrochloride)", "setting": "[2]; single substance 10 mg/kg iv (20 min before Tapentadol hydrochloride time point)", "value": "3 ± 3% (30 min) % MPE"}]}, {"smiles": "COC[C@@H](NC(C)=O)C(=O)NCc1ccccc1", "note": "[Lacosamide]", "values": [{"measurement": "Effect % MPE (time after administration of Tapentadol hydrochloride)", "setting": "[2]; single substance 3 mg/kg iv", "value": "24 ± 4% (30 min) % MPE"}, {"measurement": "ED50", "setting": "[3]; [4]", "value": 35.9, "unit": "mg/kg"}]}, {"smiles": "Nc1nnc(-c2cccc(Cl)c2Cl)c(N)n1", "note": "[Lamotrigine]", "values": [{"measurement": "ED50", "setting": "[3]; [5]", "value": 35.3, "unit": "mg/kg"}, {"measurement": "ED50 of the anticonvulsant applied alone", "setting": "[3]; i.p.", "value": 35.25, "unit": "mg/kg"}]}, {"smiles": "CC[C@@H](C(N)=O)N1CCCC1=O", "note": "[Levetiracetam]", "values": [{"measurement": "Effect % MPE (time after administration of Tapentadol hydrochloride)", "setting": "[2]; single substance 20 mg/kg iv", "value": "16 ± 4% (30 min) % MPE"}, {"measurement": "ED50", "setting": "[3]; [5]", "value": 986, "unit": "mg/kg"}]}, {"smiles": "CCOC(=O)Nc1ccc(NCc2ccc(F)cc2)cc1N", "note": "[Retigabine dihydrochloride]", "values": [{"measurement": "ED50", "setting": "[3]; [4]", "value": 5.09, "unit": "mg/kg"}]}, {"smiles": "CC[C@@H](c1cccc(O)c1)[C@@H](C)CN(C)C", "note": "[Tapentadol hydrochloride, (1R,2R)-3-(3-dimethylamino-1-ethyl-2-methyl-propyl)-phenol hydrochloride]", "values": [{"measurement": "contra-lateral paw withdrawal threshold, anti-nociceptive effect", "setting": "[1]", "value": "significant anti-nociceptive effects"}, {"measurement": "ED50 (95% confidence interval), anti-allodynic efficacy, single substance", "setting": "[1]", "value": "1.65 (1.20-2.35) mg/kg i.v."}, {"measurement": "efficacy, increase in the withdrawal threshold of the ipsi-lateral hind paw", "setting": "[1]", "value": 94, "unit": "% MPE"}, {"measurement": "Effect % MPE (time after administration of Tapentadol hydrochloride)", "setting": "[2]; single substance 1 mg/kg iv, hydrochloride", "value": "18 ± 4% (30 min) % MPE and 13 ± 5% (30 min) % MPE"}, {"measurement": "ED50", "setting": "[3]; iv, read-out: ED50 of A (Tapentadol hydrochloride) applied alone, i.v.", "value": 1.75, "unit": "mg/kg"}, {"measurement": "ED50 of A (Tapentadol hydrochloride) applied alone", "setting": "[3]; i.v., listed as A, hydrochloride", "value": "1.747 mg/kg and 1.749 mg/kg"}]}, {"smiles": "CC1(C)O[C@@H]2[C@@H](CO[C@@]3(COS(N)(=O)=O)OC(C)(C)O[C@@H]23)O1", "note": "[Topiramate]", "values": [{"measurement": "Effect % MPE (time after administration of Tapentadol hydrochloride)", "setting": "[2]; single substance 1 mg/kg iv", "value": "22 ± 3% (30 min) % MPE"}]}]}
